HELM strings list units from the 5' end as sugar, base in round brackets, then linkage (d deoxyribose, r ribose, m 2'-O-methyl, p phosphodiester). Strings are as the collection lists them; they lack the last nucleoside at the 3' end of the tested compound. [moe] = 2'-O-(2-methoxyethyl) (MOE); [sp] = phosphorothioate linkage; [m5C] = 5-methylcytosine

The target of this series is GFAP. The series is described as follows: mouse, dose not given. The note with it: ASO.
In the case of “RNA1{[moe](G)[sp].[moe](A)p.[moe](G)p.[moe](A)p.[moe](T)[sp].d(A)[sp].d(T)[sp].d([m5C])[sp].d(T)[sp].d(T)[sp].d(G)[sp].d(T)[sp].d(G)[sp].d(A)[sp].d([m5C])[sp].[moe]([m5C])p.[moe](T)p.[moe](T)[sp].[moe](G)}$$$$ (last 3' nucleoside missing)”, the 3 h FOB score worked out at 4 score 0-7. To “RNA1{[moe](G)[sp].[moe](A)p.[moe](G)p.[moe](A)p.[moe]([m5C])[sp].d(A)[sp].d(T)[sp].d(G)[sp].d([m5C])[sp].d(A)[sp].d(T)[sp].d(A)[sp].d(T)[sp].d([m5C])[sp].d(T)[sp].[moe](A)p.[moe](G)p.[moe](T)[sp].[moe](G)}$$$$ (last 3' nucleoside missing)” belongs 6 score 0-7. Regarding “RNA1{[moe](G)[sp].[moe](A)p.[moe](G)p.[moe](G)p.[moe]([m5C])[sp].d(T)[sp].d(T)[sp].d(T)[sp].d(T)[sp].d(G)[sp].d(A)[sp].d(G)[sp].d(A)[sp].d(T)[sp].d(A)[sp].[moe](T)p.[moe]([m5C])p.[moe](T)[sp].[moe](T)}$$$$ (last 3' nucleoside missing)”, the 3 h FOB score is 4 score 0-7.

“RNA1{[moe](G)[sp].[moe](A)p.[moe](G)p.[moe](T)p.[moe](G)[sp].d(T)[sp].d(G)[sp].d(T)[sp].d(A)[sp].d(T)[sp].d(T)[sp].d(A)[sp].d(G)[sp].d(G)[sp].d(A)[sp].[moe](T)p.[moe]([m5C])p.[moe]([m5C])[sp].[moe]([m5C])}$$$$ (last 3' nucleoside missing)” gave a 3 h FOB score of 6 score 0-7. As for “RNA1{[moe](G)[sp].[moe](A)p.[moe](G)p.[moe](T)p.[moe](T)[sp].d(T)[sp].d([m5C])[sp].d(T)[sp].d(T)[sp].d(G)[sp].d(T)[sp].d(T)[sp].d(A)[sp].d(G)[sp].d(T)[sp].[moe](T)p.[moe](G)p.[moe](G)[sp].[moe](A)}$$$$ (last 3' nucleoside missing)”, the figure is 7 score 0-7; as for “RNA1{[moe](G)[sp].[moe](A)p.[moe](G)p.[moe](T)p.[moe]([m5C])[sp].d(T)[sp].d([m5C])[sp].d(A)[sp].d(G)[sp].d(T)[sp].d(T)[sp].d(T)[sp].d(T)[sp].d([m5C])[sp].d([m5C])[sp].[moe](T)p.[moe]([m5C])p.[moe]([m5C])[sp].[moe](A)}$$$$ (last 3' nucleoside missing)”, 4 score 0-7; as for “RNA1{[moe](G)[sp].[moe](A)p.[moe](G)p.[moe](T)p.d(G)[sp].d(T)[sp].d(G)[sp].d(T)[sp].d(A)[sp].d(T)[sp].d(T)[sp].d(A)[sp].d(G)[sp].d(G)[sp].[moe](A)p.[moe](T)p.[moe]([m5C])p.[moe]([m5C])[sp].[moe]([m5C])}$$$$ (last 3' nucleoside missing)”, 4 score 0-7. “RNA1{[moe](G)[sp].[moe](A)p.[moe](T)p.[moe](T)p.[moe](T)[sp].d(T)[sp].d([m5C])[sp].d([m5C])[sp].d([m5C])[sp].d([m5C])[sp].d(G)[sp].d(T)[sp].d([m5C])[sp].d(T)[sp].d(T)[sp].[moe](T)p.[moe](G)p.[moe](G)[sp].[moe](T)}$$$$ (last 3' nucleoside missing)” gave a 3 h FOB score of 6 score 0-7. To “RNA1{[moe](G)[sp].[moe](A)p.[moe]([m5C])p.[moe](T)p.[moe](A)[sp].d(T)[sp].d([m5C])[sp].d(T)[sp].d(A)[sp].d(G)[sp].d(G)[sp].d(A)[sp].d(T)[sp].d(T)[sp].d(T)[sp].[moe](G)p.[moe](G)p.[moe]([m5C])[sp].[moe](A)}$$$$ (last 3' nucleoside missing)” belongs 5 score 0-7; to “RNA1{[moe](G)[sp].[moe](A)p.[moe]([m5C])p.[moe]([m5C])p.[moe](T)[sp].d(G)[sp].d(T)[sp].d(G)[sp].d(A)[sp].d([m5C])[sp].d(T)[sp].d(A)[sp].d(T)[sp].d([m5C])[sp].d(T)[sp].[moe](A)p.[moe](G)p.[moe](G)[sp].[moe](A)}$$$$ (last 3' nucleoside missing)”, 3 score 0-7. On to “RNA1{[moe](G)[sp].[moe](G)p.[moe](A)p.[moe](G)p.[moe](A)[sp].d(A)[sp].d(G)[sp].d(G)[sp].d(T)[sp].d([m5C])[sp].d(T)[sp].d(G)[sp].d([m5C])[sp].d(A)[sp].d([m5C])[sp].[moe](G)p.[moe](G)p.[moe](G)[sp].[moe](A)}$$$$ (last 3' nucleoside missing)”, for which the 3 h FOB score stood at 7 score 0-7. As for “RNA1{[moe](G)[sp].[moe](G)p.[moe](A)p.[moe](G)p.[moe](G)[sp].d(G)[sp].d(T)[sp].d(G)[sp].d(A)[sp].d([m5C])[sp].d([m5C])[sp].d([m5C])[sp].d(A)[sp].d(A)[sp].d(G)[sp].[moe](T)p.[moe]([m5C])p.[moe]([m5C])[sp].[moe](T)}$$$$ (last 3' nucleoside missing)”, the figure is 4 score 0-7; as for “RNA1{[moe](G)[sp].[moe](G)p.[moe](A)p.[moe](G)p.[moe](G)[sp].d(G)[sp].d([m5C])[sp].d(G)[sp].d(A)[sp].d(T)[sp].d(G)[sp].d(T)[sp].d(A)[sp].d(G)[sp].d(T)[sp].[moe](A)p.[moe](G)p.[moe](G)[sp].[moe](T)}$$$$ (last 3' nucleoside missing)”, 1 score 0-7; as for “RNA1{[moe](G)[sp].[moe](G)p.[moe](A)p.[moe](T)p.[moe]([m5C])[sp].d(T)[sp].d([m5C])[sp].d([m5C])[sp].d(T)[sp].d([m5C])[sp].d([m5C])[sp].d(T)[sp].d([m5C])[sp].d([m5C])[sp].d(A)[sp].[moe](G)p.[moe]([m5C])p.[moe](G)[sp].[moe](A)}$$$$ (last 3' nucleoside missing)”, 0 score 0-7.

For “RNA1{[moe](G)[sp].[moe](G)p.[moe](G)p.[moe](T)p.[moe](G)[sp].d(A)[sp].d(G)[sp].d(T)[sp].d(T)[sp].d(T)[sp].d([m5C])[sp].d(T)[sp].d(T)[sp].d(G)[sp].d(T)[sp].[moe](T)p.[moe](A)p.[moe](G)[sp].[moe](T)}$$$$ (last 3' nucleoside missing)”, the 3 h FOB score amounted to 6 score 0-7. As for “RNA1{[moe](G)[sp].[moe](G)p.[moe](G)p.[moe](T)p.[moe](G)[sp].d(A)[sp].d([m5C])[sp].d([m5C])[sp].d([m5C])[sp].d(A)[sp].d(A)[sp].d(G)[sp].d(T)[sp].d([m5C])[sp].d([m5C])[sp].[moe](T)p.[moe](T)p.[moe](G)[sp].[moe](G)}$$$$ (last 3' nucleoside missing)”, the figure is 5 score 0-7. To “RNA1{[moe](G)[sp].[moe](G)p.[moe](G)p.[moe]([m5C])p.[moe](A)[sp].d(T)[sp].d(G)[sp].d(A)[sp].d(G)[sp].d([m5C])[sp].d([m5C])[sp].d(A)[sp].d(T)[sp].d([m5C])[sp].d([m5C])[sp].[moe](T)p.[moe]([m5C])p.[moe](T)[sp].[moe]([m5C])}$$$$ (last 3' nucleoside missing)” belongs 3 score 0-7. Regarding “RNA1{[moe](G)[sp].[moe](G)p.[moe](G)p.[moe]([m5C])p.[moe](A)[sp].d([m5C])[sp].d(T)[sp].d(A)[sp].d([m5C])[sp].d([m5C])[sp].d(T)[sp].d(A)[sp].d(G)[sp].d(A)[sp].d(A)[sp].[moe](T)p.[moe](A)p.[moe]([m5C])[sp].[moe](T)}$$$$ (last 3' nucleoside missing)”, the 3 h FOB score amounted to 5 score 0-7. As for “RNA1{[moe](G)[sp].[moe](G)p.[moe](T)p.[moe](A)p.[moe](A)[sp].d(G)[sp].d([m5C])[sp].d(T)[sp].d(G)[sp].d([m5C])[sp].d(T)[sp].d(G)[sp].d(G)[sp].d(A)[sp].d(G)[sp].[moe](T)p.[moe](A)p.[moe](A)[sp].[moe](G)}$$$$ (last 3' nucleoside missing)”, the figure is 7 score 0-7. Substance “RNA1{[moe](G)[sp].[moe](G)p.[moe](T)p.[moe](A)p.[moe](T)[sp].d(G)[sp].d(A)[sp].d(T)[sp].d(A)[sp].d(G)[sp].d(G)[sp].d([m5C])[sp].d(T)[sp].d([m5C])[sp].d(T)[sp].[moe](G)p.[moe](G)p.[moe]([m5C])[sp].[moe](T)}$$$$ (last 3' nucleoside missing)” came in with a 3 h FOB score of 5 score 0-7. Consider “RNA1{[moe](G)[sp].[moe](G)p.[moe](T)p.[moe](G)p.[moe](A)[sp].d(G)[sp].d(T)[sp].d(T)[sp].d(T)[sp].d([m5C])[sp].d(T)[sp].d(T)[sp].d(G)[sp].d(T)[sp].d(T)[sp].[moe](A)p.[moe](G)p.[moe](T)[sp].[moe](T)}$$$$ (last 3' nucleoside missing)”, for which the 3 h FOB score was determined as 7 score 0-7. To “RNA1{[moe](G)[sp].[moe](G)p.[moe](T)p.[moe](G)p.[moe](G)[sp].d(G)[sp].d(T)[sp].d(G)[sp].d([m5C])[sp].d([m5C])[sp].d(G)[sp].d(T)[sp].d([m5C])[sp].d(T)[sp].d(G)[sp].[moe](G)p.[moe]([m5C])p.[moe](A)[sp].[moe](G)}$$$$ (last 3' nucleoside missing)” belongs 7 score 0-7.

“RNA1{[moe](G)[sp].[moe](G)p.[moe](T)p.[moe](G)p.[moe]([m5C])[sp].d(T)[sp].d(T)[sp].d(T)[sp].d(T)[sp].d(G)[sp].d([m5C])[sp].d([m5C])[sp].d([m5C])[sp].d([m5C])[sp].d([m5C])[sp].[moe](T)p.[moe]([m5C])p.[moe](G)[sp].[moe](A)}$$$$ (last 3' nucleoside missing)” displayed a 3 h FOB score of 1 score 0-7.

On to “RNA1{[moe](G)[sp].[moe](G)p.[moe](T)p.[moe](G)p.[moe]([m5C])p.d(T)[sp].d(T)[sp].d(T)[sp].d(T)[sp].d(G)[sp].d([m5C])[sp].d([m5C])[sp].d([m5C])[sp].d([m5C])[sp].d([m5C])[sp].[moe](T)p.[moe](G)p.[moe](T)[sp].[moe](A)}$$$$ (last 3' nucleoside missing)”, for which the 3 h FOB score was 3 score 0-7. As for “RNA1{[moe](G)[sp].[moe](G)p.[moe](T)p.[moe](T)p.[moe](A)[sp].d(G)[sp].d([m5C])[sp].d([m5C])[sp].d(T)[sp].d(T)[sp].d(T)[sp].d([m5C])[sp].d(T)[sp].d(G)[sp].d(A)[sp].[moe](T)p.[moe](G)p.[moe]([m5C])[sp].[moe](T)}$$$$ (last 3' nucleoside missing)”, the 3 h FOB score came to 3 score 0-7.

These data come from the OligoGym collection.
